Target: T1, Ubc13-Uev1 heterodimer (Homo sapiens, UniProt P61088)
T1 construct: gene UBE2N; heterodimer of purified recombinant Ubc13 and Uev1; with Ubiquitin-conjugating enzyme E2 variant 1
Test: surface plasmon resonance competition: Ubc13 preincubated with compound, injected over immobilized Uev1
Format: binding
Conditions: inhibition of Ubc13-Uev1 interaction; Ubc13 400 nM; 10 mM HEPES, 0.15 M NaCl, pH 7.4; legend prints 1.1 µM

T1 sequence (P61088 whole entry): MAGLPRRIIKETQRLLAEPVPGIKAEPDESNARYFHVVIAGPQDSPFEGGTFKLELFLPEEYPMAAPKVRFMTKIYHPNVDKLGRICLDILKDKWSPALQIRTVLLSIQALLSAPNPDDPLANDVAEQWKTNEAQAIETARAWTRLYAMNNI
T1 sequence (Q13404 2-147 partner): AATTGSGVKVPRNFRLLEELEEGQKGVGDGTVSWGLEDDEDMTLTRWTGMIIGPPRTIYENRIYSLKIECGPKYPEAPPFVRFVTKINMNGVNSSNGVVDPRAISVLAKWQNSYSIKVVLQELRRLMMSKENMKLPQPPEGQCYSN

IC50: 1100 nM
SMILES: NC(=O)CN(CCc1ccccn1)C(=O)CC1C(=O)N(CCc2ccc(F)cc2)CC(=O)N1CCc1ccc(F)cc1 (stereo not shown) [IIa, compound IIa]

Reference: publication PMC2894972, “Protein-Protein Interaction Antagonists as Novel Inhibitors of Non-Canonical Polyubiquitylation” (PLoS ONE, 2010)
